Assay results published in patent US20240368230A1, “CELL-PENETRATING PEPTIDES COMPRISING MULTIPLE 5-MER ALPHA-HELIX FRAGMENTS AND USES THEREOF” (ArtProBio Co., Ltd., priority 2023, published 2024).
“Also recorded” adds a separate entry of the source. Where two headings read alike, the source gives them in different places. Where a SMILES comes first, the peptide text is derived from it.

Tests used:
HCT116 cells = assay: Flow cytometry cellular uptake efficiency, HCT116; assay type: cell-based; settings: HCT116, 30 μM, FAM-labeled
Description: (§1) After washing with PBS, the cells were treated with the fluorescence-labeled peptide (sample) for 4 hours. Then, after washing twice with PBS, the cells were incubated with trypsin (1 mg/mL) for 15 minutes and the peptide bound to the cell surface was removed. The cells were centrifuged at 1,200 rpm for 5 minutes, washed twice with PBS and then suspended in a PBS buffer containing 10% non-enzymatic cell dissociation solution. The fluorescence intensity of the internalized peptide was measured using a BD LSR II flow cytometer (BD Biosciences, USA).
(§2) The cell-penetrating peptides (CPP10, CPP11 and Tat) were labeled with FAM (5 (6)-carboxyfluorescein) at the N-terminal. MFI stands for mean fluorescence intensity. Untreated cells were used as control groups (cell only). The cellular uptake efficiency refers to the degree of penetration into cells.

BALB/c nude mice [1] = assay: IVIS imaging of extracted organs, head and cochlea after IV injection; assay type: in vivo
Description: After extracting major organs (ear, brain, heart, lung, liver, spleen and kidney) from the euthanized experimental animals, the tissues were imaged using IVIS (in-vivo imaging system) (PerkinElmer, USA) and the images were analyzed with the Living Image software (PerkinElmer).

HeLa cells [2] = assay: Cytotoxicity analysis with WST-8 reagent; settings: 24 hours, various concentrations
Description: (§3) Cytotoxicity was analyzed using the WST-8 (5-(2,4-disulfophenyl)-3-(2-methoxy-4-nitrophenyl)-2-(4-nitrophenyl)-2H-tetrazolium, water-soluble tetrazolium). First, HeLa cells were inoculated onto a 96-well plate (5,000 cells/well) and cultured for 24 hours in a DMEM medium containing 10% FBS. After washing with PBS, the peptide (sample) of various concentrations was added to Opti-MEM. 24 hours later, the WST-8 reagent was added and incubation was conducted for 1 hour. Then, WST-8 formazan was quantified using a Victor X5 multilabel plate reader (Perkin Elmer, USA).

HeLa cells [3] = assay: Cellular localization by CLSM; assay type: cell-based; settings: 10 μM FAM-labeled, 2 hours, DAPI
Description: A DMEM medium containing 10% FBS and an 8-well Lab-Tek II chamber slide (Thermo Fisher Scientific, USA) were prepared. […] […] The cultured cells were washed 5 times with PBS. The living cells were visualized using an LSM 880 confocal microscope (Carl Zeiss, Germany).
The cell-penetrating peptides were labeled with FAM.

HeLa cells [4] = assay: Flow cytometry cellular uptake efficiency, HeLa; assay type: cell-based
Description: as §1, §2
Flow cytometry was performed after treating Hela cells with the cell-penetrating peptide prepared in Example 11 (CPP11) of different concentrations (4 μM, 30 μM, 60 μM, 90 μM, 120 μM, 270 μM and 500 μM).

[5] = CD equilibrium thermal unfolding; assay type: physicochemical; settings: CD at 4-84° C., two-state coil-helix transition
Description: For the cell-penetrating peptide prepared in Example 11 (CPP11), CD spectra were measured under various temperature conditions (4° C., 20° C., 36° C., 52° C., 68° C. and 84° C.) to analyze thermal stability through equilibrium thermal unfolding.

BALB/c nude mice [6] = assay: In-vivo fluorescence imaging (IVIS) of living mice, targeting
Description: All animal experimental procedures including sample administration and euthanasia were performed in accordance with the strict guidelines of the Yonsei University Health System Institutional Animal Care and Use Committee. Female 7-week BALB/c nude mice were purchased from Orient Bio Company (Korea). Fluorescence-labeled peptide (sample) (10 mg/kg) was injected via the lateral tail vein of the mice. Fluorescence images were acquired at different times (0, 4, 8 and 12 hours) using an in-vivo imaging system (IVIS; PerkinElmer, USA) and the images were analyzed with the Living Image software (PerkinElmer).
Female 7-week-old BALB/c nude mice were injected IV (intravenously) with the cell-penetrating peptide prepared in Example 10 (CPP10) at 10 mg/kg or 1 mg/kg via the lateral tail vein and imaged using IVIS (in-vivo imaging system) (PerkinElmer, USA) 4 hours later. The images were analyzed with the Living Image software (PerkinElmer). The mice were analyzed from the top, bottom (belly) and side positions (FIG. 44A). Then, after administering the same volume of the cell-penetrating peptide prepared in Example 10 (CPP10) at 10 mg/kg via IV (intravenous) or IP (intraperitoneal) injection, the mice were imaged 4 hours later (FIG. 44B).
Next, female 7-week-old BALB/c nude mice were injected IV (intravenously) with the cell-penetrating peptide of Example 10 (CPP10), the cell-penetrating peptide of Example 11 (CPP11) or the cell-penetrating peptide of Example 14 (CPP11d) at 10 mg/kg via the lateral tail vein, and they were imaged 30 minutes and 6 hours later using IVIS (in-vivo imaging system) (PerkinElmer, USA). The images were analyzed with the Living Image software (PerkinElmer) (FIG. 44C). In FIGS. 44A and 44B, the cell-penetrating peptides were labeled with TAMRA (5 (6)-carboxytetramethylrhodamine). In FIG. 44C, the cell-penetrating peptides were labeled with FAM.
The images were analyzed with the Living Image software (PerkinElmer) (FIGS. 50 and 51).
The cell-penetrating peptide prepared in Example 11 (CPP11) was also administered at the same concentration and then analyzed by IVIS 1 hour later (FIG. 51). The cell-penetrating peptide was used after labeling with FAM.
4 hours later, the mice were imaged using IVIS (in-vivo imaging system) (PerkinElmer, USA) and the images were analyzed with the Living Image software (PerkinElmer) (FIG. 53).
The cell-penetrating peptide prepared in Example 11 (CPP11) was also administered at the same concentration and then analyzed by IVIS 1 hour later (FIG. 53). The cell-penetrating peptide was used after labeling with FAM.
Female 7-week-old BALB/c nude mice were injected IV (intravenously) with 200 μL of the cell-penetrating peptide of Example 11 (CPP11) or the existing cell-penetrating peptides (Rev ARM, Tat, penetratin and R8) at 5 mg/kg via the lateral tail vein. 4 hours later, the mice were imaged using IVIS (in-vivo imaging system) (PerkinElmer, USA) and the images were analyzed with the Living Image software (PerkinElmer) (FIGS. 54 and 55). The cell-penetrating peptides were used after labeling with FAM.

293T cells = assay: Flow cytometry cellular uptake efficiency, 293T; assay type: cell-based; settings: 30 μM, FAM-labeled
Description: as §1, §2

[7] = CD spectroscopy of cell-penetrating peptides (helicity); settings: for secondary structure / helix stabilization by CD: 10 mM potassium phosphate, pH 7.4, 20° C.
Description: The concentration of peptides/proteins was 5-20 μM in general. Spectra were obtained using a Jasco J-1500 CD spectrometer (JASCO, Japan) or a Chirascan CD spectrometer (Applied Photophysics, UK). Scanning was carried out using a cuvette with a path length of 1 mm. MRE (mean residue ellipticity) was calculated per amino acid residue.
The cell-penetrating peptides (CPP1 TO 13 and CPP11d) were dissolved respectively in 10 mM potassium phosphate. The analysis was performed under the condition of pH 7.4 and 20° C.

HeLa cells [8] = test system: HeLa cells
Description: as §3

IIB RNA = assay: UV melting analysis of IIB RNA and cRev-IIB complex; assay type: physicochemical, HIV-1; settings: 260 nm; cRev/IIB ratio 1; IIB RNA only as control
Description: UV melting experiments for free RNA (2 μM) and a protein-RNA complex (1:1 molar ratio) were conducted using an Agilent 8453 diode array UV-Vis spectrophotometer equipped with a Peltier temperature controller. Spectra were measured at 260 nm using a cuvette with a path length of 1 cm under the heating rate condition of 2° C./min. The measurement was repeated 3 times and the average was taken. Prior to the measurement, the RNA sample was heated at 90° C. for 2 minutes and then annealed on ice. The melting temperature (Tm) was calculated with the Origin software (OriginLab, USA) using a two-state or multi-state model.
A complex (cRev-IIB complex) was prepared by mixing the cRev prepared in Preparation Example 2 with IIB RNA and UV melting experiment was performed. The cRev/IIB ratio was 1. For the control group (IIB RNA only), only IIB RNA was used without cRev.

[9] = extracted organs, IV 10 mg/kg, 4 hours
[10] = FAM-labeled, IV 10 mg/kg, 30 minutes and 6 hours

With `C[C@H](NC(=O)[C@H](CCC(N)=O)NC(=O)C(C)(C)NC(=O)[C@H](C)NC(=O)C(C)(C)NC(=O)[C@H](CC(N)=O)NC(=O)[C@H](CCCNC(=N)N)NC(=O)[C@H](CCCNC(=N)N)NC(=O)[C@H](C)NC(=O)[C@H](CCC(N)=O)NC(=O)C(C)(C)NC(=O)[C@H](C)NC(=O)C(C)(C)NC(=O)[C@H](CC(N)=O)NC(=O)[C@H](CCCNC(=N)N)NC(=O)[C@H](CCCNC(=N)N)NC(=O)[C@H](C)NC(=O)[C@H](CCC(N)=O)NC(=O)C(C)(C)NC(=O)[C@H](C)NC(=O)C(C)(C)NC(=O)[C@H](CC(N)=O)NC(=O)[C@H](CCCNC(=N)N)NC(=O)[C@H](CCCNC(=N)N)NC(=O)[C@H](C)NC(=O)[C@H](CCC(N)=O)NC(=O)C(C)(C)NC(=O)[C@H](C)NC(=O)C(C)(C)N)C(=O)N[C@@H](CCCNC(=N)N)C(=O)N[C@@H](CCCNC(=N)N)C(=O)N[C@@H](CC(N)=O)C(=O)NC(C)(C)C(=O)N[C@@H](C)C(=O)NC(C)(C)C(N)=O` [CPP11] (HELM PEPTIDE1{[Aib].A.[Aib].Q.A.R.R.N.[Aib].A.[Aib].Q.A.R.R.N.[Aib].A.[Aib].Q.A.R.R.N.[Aib].A.[Aib].Q.A.R.R.N.[Aib].A.[Aib].[am]}$$$$V2.0; N-terminus assumed) the “cellular uptake efficiency relative to Tat” value (HCT116 cells; 4 hours, MFI) was ≥ 4 times, the “time to accumulation in the ear” value (BALB/c nude mice [1]; IV 10 mg/kg) was ≤ 4 h and the excretion route (BALB/c nude mice [1]; IV 10 mg/kg, 4 hours) was “excreted out of the body through the liver and kidneys”. For the same compound, the “accumulation in the head (outside and inside)” value (BALB/c nude mice [1]; IV 10 mg/kg, 4 hours, versus PBS, 10 mg/kg) was “accumulated effectively in the facial area, especially in the ear, in large quantities; also recorded: accumulated deeply not only in the ear but also in the nose”, the “accumulation in heart, lung and spleen” value (BALB/c nude mice [1]; [9]) was “not accumulated in the heart, lung and spleen tissues” and the “accumulation rate in the brain” value (BALB/c nude mice [1]; [9]) was “very low”. The main target organ (BALB/c nude mice [1]; [9]) was “targets mainly the ear”, the “accumulation in the inner ear (cochlea)” value (BALB/c nude mice [1]; separated cochlea, IV, versus PBS (w/o treatment)) was “significantly remarkable accumulation in the inner ear (cochlea)” and the “cytotoxicity (WST-8)” value (HeLa cells [2]) was “hardly show cytotoxicity”. The cellular localization (HeLa cells [3]) was “mainly located outside the nucleus”, the “cellular uptake efficiency relative to Tat” value (HeLa cells [4]; HeLa, 30 μM, 4 hours, FAM-labeled, MFI) was ≥ 4 times and the “MFI / uptake efficiency versus concentration” value (HeLa cells [4]; Hela cells, 4-500 μM) was “uptake efficiency increases gradually with the concentration”. The “melting temperature (CD thermal unfolding)” value [5] was 39.4 °C, the “accumulation efficiency in the ear” value (BALB/c nude mice [6]; FAM-labeled, IV 5 mg/kg, 1 hour, compared with CPP14, 15 and 17) was “much higher accumulation efficiency in the ear” and the bioaccumulation (BALB/c nude mice [6]; FAM-labeled, IV 5 mg/kg, 4 hours, comparison with existing CPPs) was “accumulated in the ear tissue at a significantly high level”. For the same compound, the in-vivo targeting site (BALB/c nude mice [6]; [10]) was “targeted the ear”, the “cellular uptake efficiency relative to Tat” value (293T cells; 4 hours, MFI) was ≥ 4 times and the “secondary structure / helix stabilization by CD” value [7] was “perfect α-helical structure”. The “dependence of [θ]222/[θ]208 on concentration” value ([7]; 5-200 μM, 20° C.) was “not affected by concentration”.

With “UaUgarrnUaUqarrnUaUqarrnUaUqarrnUaU [CPP11d]” the “cytotoxicity (WST-8)” value (HeLa cells [8]) was “hardly show cytotoxicity”, the in-vivo targeting site (BALB/c nude mice [6]; mouse, in vivo, iv, 10 mg/kg) was “targeted the ear” and the “secondary structure / helix stabilization by CD” value [7] was “perfect left-handed helical conformation”.

In the case of “GGACCUGGUAUGGGCGCAGCGCAAGCUGACGGUACAGGCCAGGUCC (listed as RNA, chemistry not given here) [IIB RNA, stem-loop IIB region of HIV-1 RRE RNA]”, the “Tm (UV melting)” value (IIB RNA) is reported as 60.6 °C.

With `C[C@H](NC(=O)[C@H](CCC(N)=O)NC(=O)C(C)(C)NC(=O)[C@H](C)NC(=O)C(C)(C)NC(=O)[C@H](CC(N)=O)NC(=O)[C@H](CCCNC(=N)N)NC(=O)[C@H](CCCNC(=N)N)NC(=O)[C@H](C)NC(=O)[C@H](CCC(N)=O)NC(=O)C(C)(C)NC(=O)[C@H](C)NC(=O)C(C)(C)NC(=O)[C@H](CC(N)=O)NC(=O)[C@H](CCCNC(=N)N)NC(=O)[C@H](CCCNC(=N)N)NC(=O)[C@H](C)NC(=O)[C@H](CCC(N)=O)NC(=O)C(C)(C)NC(=O)[C@H](C)NC(=O)C(C)(C)N)C(=O)N[C@@H](CCCNC(=N)N)C(=O)N[C@@H](CCCNC(=N)N)C(=O)N[C@@H](CC(N)=O)C(=O)NC(C)(C)C(=O)N[C@@H](C)C(=O)NC(C)(C)C(N)=O` [CPP10] (HELM PEPTIDE1{[Aib].A.[Aib].Q.A.R.R.N.[Aib].A.[Aib].Q.A.R.R.N.[Aib].A.[Aib].Q.A.R.R.N.[Aib].A.[Aib].[am]}$$$$V2.0; N-terminus assumed) the “cell-penetrating ability compared with Tat” value (HCT116 cells) was “significantly superior”, the “cytotoxicity (WST-8)” value (HeLa cells [2]) was “hardly show cytotoxicity” and the “cell-penetrating ability compared with Tat” value (HeLa cells [4]; HeLa, 30 μM, FAM-labeled) was “significantly superior”. The in-vivo targeting site (BALB/c nude mice [6]; [10]) was “targeted the ear”, the “targeting efficiency IV versus IP” value (BALB/c nude mice [6]; TAMRA-labeled, 10 mg/kg, 4 hours) was “higher targeting efficiency when administered by IV injection rather than by IP injection” and the in-vivo fluorescence distribution (BALB/c nude mice [6]; TAMRA-labeled, IV tail vein, 10 mg/kg or 1 mg/kg, 4 hours) was “bright fluorescence was observed in the ear”. For the same compound, the “cell-penetrating ability compared with Tat” value (293T cells) was “significantly superior” and the “secondary structure / helix stabilization by CD” value [7] was “significantly higher than those of CPP8 and CPP9”.
